In patent US9896512B2, “Antitumor peptide derived from a complementarity determining region of a humanized monoclonal antibody to NAP12B transporter” (Recepta Biopharma S.A., priority 2010, dated 2018):
No end group written: not given here.

Key:
B16F10-Nex2 cells [1] = assay: Tumor cell invasion through Matrigel (Transwell); assay type: cell-based, murine; set-up: inhibition of cell invasion: dose or concentration left out as unconfirmed; conditions: 24 hours
Procedure: […] As a chemoattractant, 10% FCS in RPMI was used in the transwell lower chamber. After 24 hours at 37° C. in humidified atmosphere with 5% CO2, non-invasive cells were excluded with a swab, and cells that crossed the membrane were fixed with methanol and stained with Giemsa. Cells were counted in each transwell membrane, and the numbers of invasive cells are expressed as percentages.

melanoma = assay: Primary tumor development in a subcutaneous model; assay type: in vivo; conditions: susceptible mice
B16F10-Nex2 cells [2] = assay: Superoxide anion production, dihydroethidium (DHE) assay; assay type: cell-based, murine; conditions: 1 mM, 18 hours
Procedure: Based on the internal interactions of components, such as, actin and peroxides in tumor cells, even leading to apoptosis, the production of anion superoxide in tumor cells treated with RB10 was examined by dihydroethidium (DHE) assay.
B16F10-Nex2 cells were treated with 1 mM RB10 for 18 hours or 5 mM H2O2 for 20 minutes. Treated cells with peptide or H2O2 and untreated cells were then incubated with DHE. Conversion of DHE to ethidium by oxidation was observed using fluorescence microscopy (Magnification 600×).

## C[C@@H]1NC(=O)[C@H](CCCNC(=N)N)NC(=O)[C@H](C)NC(=O)[C@H]([C@@H](C)O)NC(=O)[C@H](CCC(=O)O)NC(=O)CNC(=O)[C@H](CCCNC(=N)N)NC(=O)[C@H](C)NC(=O)[C@@H](N)CSSC[C@@H](C(N)=O)NC(=O)CNC(=O)[C@H](CCC(N)=O)NC(=O)CNC(=O)[C@H](Cc2c[nH]c3ccccc23)NC(=O)[C@H](Cc2ccc(O)cc2)NC(=O)[C@H](C)NC(=O)[C@H](Cc2ccccc2)NC(=O)[C@H]([C@@H](C)O)NC1=O [RB9, CARGETARATFAYWGQGC-NH2]
B16F10-Nex2 cells [1]
  inhibition of cell invasion: 60%
B16F10-Nex2 cells [1]; 10% FCS chemoattractant
  inhibition of cell invasion through Matrigel, dose dependence: dose-dependent inhibition

## CARGETARATFAYWGQG-NH2 [RB10, CARGETARATFAYWGQG-NH2]
melanoma
  protection against development of a primary tumor: not against the development of a primary tumor
B16F10-Nex2 cells [2]
  reaction with dihydroethidium (anion superoxide production): positive
